# Test results published in patent publication US4264577A, “Contraceptive methods and compositions” (Eli Lilly and Company, priority 1980, dated 1981).
# Tests used:
# [1] = biological target: T1, Acrosin (purified from boar sperm) (Sus scrofa, UniProt P08001); assay: Acrosin inhibition in vitro (BAPNA substrate); type: biochemical; set-up: Inhibition (units/mg): dose or concentration left out as unconfirmed; settings: for Inhibition (units/mg.): sodium salts; for Inhibition (units/mg): other salts
# T1 construct: purified from boar sperm; from tissue; host or cells: boar sperm
# Description: A control using the buffer solution without the test compound added is also run. A 200 μl-sample of the incubation mixture is then withdrawn and is added to a cuvette containing BAPNA (1 ml.) and triethanolamine buffer (2 ml.). The mixture is stirred and placed in a Gilford recording spectrophotometer. The increase in optical density at 383 nm is measured. One unit of acrosin activity is defined as the amount of acrosin which will cause an increase in optical density at 383 nm. of 0.001/minute. One unit of inhibitory activity is defined as the amount of inhibitor which will cause a reduction in the increase in optical density at 383 nm. of 0.001/minute.
# [2] = biological target: T2, Testicular bovine hyaluronidase (Bos taurus, UniProt Q2YDK3); assay: Hyaluronidase inhibition in vitro (chondroitin sulfate agar plate); type: biochemical; settings: for % Inhibition: Conc. of Test Sol. 10 mg/ml; for inhibition at 1000 µg/mL: Conc. of Test Solution 1 mg/ml
# T2 construct: purchased Sigma Chemical Company; host or cells: bovine testis
# T2 sequence (Q2YDK3 36-553): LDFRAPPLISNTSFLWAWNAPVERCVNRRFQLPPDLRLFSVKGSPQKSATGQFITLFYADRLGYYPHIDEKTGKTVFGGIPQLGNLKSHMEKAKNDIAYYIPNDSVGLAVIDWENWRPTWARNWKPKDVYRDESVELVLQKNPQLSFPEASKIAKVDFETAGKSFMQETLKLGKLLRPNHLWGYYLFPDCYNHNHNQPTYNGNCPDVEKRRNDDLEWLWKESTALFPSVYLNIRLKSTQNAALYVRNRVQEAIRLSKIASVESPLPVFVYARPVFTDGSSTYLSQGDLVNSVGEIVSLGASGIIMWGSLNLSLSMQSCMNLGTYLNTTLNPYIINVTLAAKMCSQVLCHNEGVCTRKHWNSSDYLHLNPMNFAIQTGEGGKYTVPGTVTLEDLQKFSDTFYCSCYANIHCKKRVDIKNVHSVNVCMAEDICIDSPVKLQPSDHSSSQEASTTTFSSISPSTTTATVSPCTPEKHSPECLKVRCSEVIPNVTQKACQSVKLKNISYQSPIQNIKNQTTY
# Description: The inhibition of hyaluronidase is assessed using chondroitin sulfate as the enzyme substrate according to the following procedure:
# Agar plates containing chondroitin sulfate (0.1 percent) are prepared by the following method: water solutions of 1 percent agarose, 2 M sodium chloride (0.1 vol.), 1 M sodium acetate (pH 5.0, 0.1 vol), and sodium azide (0.5 mg./ml., 0.1 vol.) are mixed and the mixture is brought to the boiling temperature. […] After cooling to about 45° C., the resulting mixture (20 ml.) is poured onto a petri dish. The plates are allowed to cool to room temperature. A well 2 mm. in diameter is then cut in the agar surface. […] A control using only the buffer solution without added test compound is also run. The plates are then incubated overnight (about 16 hours) at 37° C. The zones of hydrolysis of chondroitin sulfate by hyaluronidase are visualized by flooding the plate with 10 percent cetyl trimethyl ammonium bromide. The area of the zone is logarithmically proportional to the concentration of hyaluronidase. Inhibitor activity is determined by comparing the area of hydrolysis from the test compound to the area of hydrolysis from the control. The results are expressed as percent inhibition calculated as follows: [formula]
# [3] = Conc. of Test Solution 10 Mg/ml
# [4] = sodium salts, Conc. of Test Solution 10 mg/ml
# T1 sequence (P08001 40-338 limits assumed): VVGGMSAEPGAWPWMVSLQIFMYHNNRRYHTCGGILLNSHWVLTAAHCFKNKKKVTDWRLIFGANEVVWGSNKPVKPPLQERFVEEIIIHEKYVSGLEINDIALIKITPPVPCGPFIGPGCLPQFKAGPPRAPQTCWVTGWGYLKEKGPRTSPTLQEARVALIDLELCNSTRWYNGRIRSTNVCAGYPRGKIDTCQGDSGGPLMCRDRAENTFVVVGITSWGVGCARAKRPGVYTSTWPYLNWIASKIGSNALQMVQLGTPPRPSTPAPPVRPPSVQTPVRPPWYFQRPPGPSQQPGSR
# T1 sequence (P08001 17-39 limits assumed): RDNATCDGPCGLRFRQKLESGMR
SMILES,Inhibition (units/mg.) ([1]; Conc. of Test Solution 1 Mg/ml),inhibition at 1000 µg/mL ([2]; sodium salts),other results
CCCCCCCCCCCCCCCCCOS(=O)(=O)O [n-heptadecyl],,,"Inhibition (units/mg.) [1, 3]: 18,300 units/mg.; inhibition at 10000 µg/mL [2, 4]: 23%"
CCCCCCCCCCCCCCOS(=O)(=O)O [CH3 (CH2)13 NH4],,,"Inhibition (units/mg) [1]: 47,000 units/mg; % Inhibition ([2]; other salts): 14%"
CC(C)CCCC(C)CCOS(=O)(=O)O (stereo not drawn) [tetrahydrogeranyl],"240,000 units/mg.",0%,
CCCCCCCCCCC(CCCCCCCC)COS(=O)(=O)O (stereo not drawn) [2-octyldodecyl],"132,000 units/mg.",0%,
CCCCCCCC/C=C\CCCCCCCCOS(=O)(=O)O [oleyl],"152,000 units/mg.",0%,
CCCCCCCCCCCCCCCCCCCCCCOS(=O)(=O)O [n-docosyl],"300,000 units/mg.",0%,
CC(C)CCCCCCCCCCCOS(=O)(=O)O [12-methyltridecyl],"172,000 units/mg.",7%,
CCCCCCCCCCCOS(=O)(=O)O [n-hendecyl],,,"Inhibition (units/mg.) [1, 3]: 0 units/mg.; inhibition at 10000 µg/mL [2, 4]: 100%"
CCCCCCCCCCCCCCOS(=O)(=O)O [CH3 (CH2)13 K],,,"Inhibition (units/mg) [1]: 62,000 units/mg; % Inhibition ([2]; other salts): 27%"
CCCCCCCCCCCCCCCCCCCCOS(=O)(=O)O [n-eicosyl],,,"Inhibition (units/mg.) [1, 3]: 31,800 units/mg.; inhibition at 10000 µg/mL [2, 4]: 0%"
CCCCCCCCCCCCCOS(=O)(=O)O [n-tridecyl],,,"Inhibition (units/mg.) [1, 3]: 3,200 units/mg.; inhibition at 10000 µg/mL [2, 4]: 80%"
CCCCCCCCCCCCCCCCCCCCCCCCCCCOS(=O)(=O)O [n-heptacosyl],"100,000 units/mg.",0%,
CCCCCCCCCCC(CCC)OS(=O)(=O)O (stereo not drawn) [4-tetradecyl],"102,000 units/mg.",0%,
CCCCCCCCCCCCOS(=O)(=O)O [CH3 (CH2)11 diethanolammonium],,,"Inhibition (units/mg) [1]: 90,000 units/mg; inhibition at 10000 µg/mL ([2]; 16 h, other salts, Conc. of Test Sol. 10 mg/ul): 100%"
CCCCCCCCCCCCCCOS(=O)(=O)O [CH3 (CH2)13 Li],,,"Inhibition (units/mg) [1]: 58,000 units/mg; % Inhibition ([2]; other salts): 27%"
CCCCC/C=C\C/C=C\CCCCCCCCOS(=O)(=O)O [linoleyl],"210,000 units/mg.",0%,

SMILES,Inhibition (units/mg.) ([1]; Conc. of Test Solution 1 Mg/ml),inhibition at 1000 µg/mL ([2]; sodium salts),other results
"CCCCCCCCCCCCOS(=O)(=O)[O-].[Na+] [n-dodecyl, Sodium lauryl sulfate]",,,"inhibition at 10000 µg/mL [2, 4]: 71%"
CCCCCCCCCCCCCCCCCCCCCCCCOS(=O)(=O)O [n-tetracosyl],"123,000 units/mg.",0%,
CCCCCCCCCCCCC(C)OS(=O)(=O)O (stereo not drawn) [2-tetradecyl],"87,000 units/mg.",100%,
CCCCCCCCCC(CCCCCC)OS(=O)(=O)O (stereo not drawn) [7-hexadecyl],"123,000 units/mg.",0%,
CCCCCCCCCC(CCCCCCCC)OS(=O)(=O)O (stereo not drawn) [9-octadecyl],"148,000 units/mg.",7%,
CCCCCCCCC(CCCCCCC)OS(=O)(=O)O (stereo not drawn) [8-hexadecyl],"28,000 units/mg.",0%,
CCCCCCCCCCCCCCOS(=O)(=O)O [CH3 (CH2)13 Mg],,,"Inhibition (units/mg) [1]: 59,000 units/mg; % Inhibition ([2]; other salts): 14%"
CCCC/C=C\CCCCCCCCOS(=O)(=O)O [myristoleyl],"160,000 units/mg.",13%,
CCCCCCCCC(CCCCC)OS(=O)(=O)O (stereo not drawn) [6-tetradecyl],"90,000 units/mg.",12%,
CCCCCCCCCCCCCCCOS(=O)(=O)O [n-pentadecyl],,,"Inhibition (units/mg.) [1, 3]: 14,300 units/mg.; inhibition at 10000 µg/mL [2, 4]: 60%"
CCCCCCCCCCCCCCCCCCOS(=O)(=O)O [n-octadecyl],,,"Inhibition (units/mg.) [1, 3]: 26,000 units/mg.; inhibition at 10000 µg/mL [2, 4]: 30%"
CCCCCCCC(CCCCCC)OS(=O)(=O)O (stereo not drawn) [7-tetradecyl],"112,000 units/mg.",0%,
CCCCCCCCCCCCCCCCOS(=O)(=O)O [n-hexadecyl],,,"Inhibition (units/mg.) [1, 3]: 15,200 units/mg.; inhibition at 10000 µg/mL [2, 4]: 75%"
CCCCCCCCCCCCCCOS(=O)(=O)O [CH3 (CH2)13 Ca],,,"Inhibition (units/mg) [1]: 48,000 units/mg; % Inhibition ([2]; other salts): 38%"
CCCC/C=C/CCCCCCCCOS(=O)(=O)O [myristeladyl],"216,000 units/mg.",13%,
"CC(C)CCCC(C)CCCC(C)CCOS(=O)(=O)O (stereo not drawn) [3,7,11-trimethyldodecyl]","29,000 units/mg.",39%,
